The results in this text go back to patent publication US8097440B1, “Engineered microorganisms capable of producing target compounds under anaerobic conditions” (Gevo, Inc., priority 2008, dated 2012).

Details in all cases: relative to Ec_IlvC^his6 with NADPH
Assay [1] has as its target T1, Escherichia coli KARI (ketol-acid reductoisomerase) Ec_IlvC^his6, wild type IlvC (SEQ ID NO: 13) with his6-tag, SEQ ID NO: 15 (Escherichia coli, UniProt P05793).
T1 sequence (P05793 with tags, fused parts or gaps): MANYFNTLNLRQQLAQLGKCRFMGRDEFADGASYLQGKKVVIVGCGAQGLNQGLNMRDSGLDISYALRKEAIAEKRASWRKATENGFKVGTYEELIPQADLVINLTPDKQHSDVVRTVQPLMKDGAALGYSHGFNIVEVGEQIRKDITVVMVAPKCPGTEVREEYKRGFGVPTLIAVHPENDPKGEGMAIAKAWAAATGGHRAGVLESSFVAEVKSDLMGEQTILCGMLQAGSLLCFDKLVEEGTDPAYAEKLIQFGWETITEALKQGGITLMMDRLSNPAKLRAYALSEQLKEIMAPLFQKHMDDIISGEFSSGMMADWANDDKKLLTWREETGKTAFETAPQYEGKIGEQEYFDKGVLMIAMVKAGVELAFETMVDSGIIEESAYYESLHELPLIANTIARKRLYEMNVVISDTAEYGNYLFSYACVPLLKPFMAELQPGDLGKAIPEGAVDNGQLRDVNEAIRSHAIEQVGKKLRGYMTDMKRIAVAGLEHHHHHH
As to the kind of experiment: KARI cuvette assay, purified Ec_IlvC^his6 (parent / wild type). It counts as biochemical, E. coli. As to the method: KARI cuvette assay: KARI activity was assayed kinetically by monitoring the decrease in NAD(P)H concentration by measuring the absorbance at 340 nm. A reaction buffer was prepared containing 250 mM potassium phosphate pH 7, 1 mM DTT and 10 mM MgCl2. Cell pellets were resuspended (0.25 g wet weight/mL buffer) in 250 mM potassium phosphate (KPi) buffer containing 1 mM DTT and 10 mM MgCl2. The resuspended cells were lysed by sonication for 1 min with a 50% duty cycle and pelleted at 11000×g and 4° C. for 15 min. A reaction mixture consisting of 910 μl reaction buffer, 50 μl acetolactate, and 20 μl lysate was prepared in a cuvette. […]
Only 20% of the enzymes of the recombination library were active on NADH. After screening 1,000 clones using the NADH depletion assay at 340 nm, 26 KARI variants were selected for a rescreen by the high-throughput assay described in Example 14 and eight thereof were expressed in 25 ml LBamp medium in shake flasks according to the protocol for cell growth and protein expression in shake flasks as described in Example 14, purified according to the protocol for purification of KARI enzymes as described in Example 14, and NAD(P)H depletion at 340 nm was measured again. […] The KM values of variants Ec_llvC^2H10-his6 and Ec_llvC^6E6-his6 were measured and the catalytic efficiencies were calculated.

Assay [2] concerns the target T2, E. coli KARI Ec_IlvC variant Ec_IlvC^Q110A-his6 (Q110A), SEQ ID NO: 21 (Escherichia coli, UniProt P05793, Q110A).
T2 sequence (P05793 with tags, fused parts or gaps Q110A): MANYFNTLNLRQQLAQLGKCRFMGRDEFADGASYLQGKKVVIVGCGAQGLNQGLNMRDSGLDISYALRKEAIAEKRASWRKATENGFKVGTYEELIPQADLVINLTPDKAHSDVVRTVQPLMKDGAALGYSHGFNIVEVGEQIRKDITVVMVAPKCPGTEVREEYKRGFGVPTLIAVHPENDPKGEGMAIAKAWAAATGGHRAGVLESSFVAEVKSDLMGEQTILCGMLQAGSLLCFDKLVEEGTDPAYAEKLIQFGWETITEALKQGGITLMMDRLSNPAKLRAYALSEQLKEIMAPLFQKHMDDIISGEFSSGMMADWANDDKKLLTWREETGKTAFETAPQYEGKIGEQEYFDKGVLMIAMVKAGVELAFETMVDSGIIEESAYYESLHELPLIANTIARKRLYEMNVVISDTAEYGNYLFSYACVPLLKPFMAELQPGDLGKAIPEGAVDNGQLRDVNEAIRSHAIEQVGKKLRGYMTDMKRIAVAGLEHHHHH
As to the kind of experiment: KARI cuvette assay, purified Ec_IlvC^Q110A-his6. Type of assay: biochemical. How it is done:
(§1) KARI cuvette assay: KARI activity was assayed kinetically by monitoring the decrease in NAD(P)H concentration by measuring the absorbance at 340 nm. A reaction buffer was prepared containing 250 mM potassium phosphate pH 7, 1 mM DTT and 10 mM MgCl2. Cell pellets were resuspended (0.25 g wet weight/mL buffer) in 250 mM potassium phosphate (KPi) buffer containing 1 mM DTT and 10 mM MgCl2. The resuspended cells were lysed by sonication for 1 min with a 50% duty cycle and pelleted at 11000×g and 4° C. for 15 min. A reaction mixture consisting of 910 μl reaction buffer, 50 μl acetolactate, and 20 μl lysate was prepared in a cuvette. The reaction was initiated by addition of 20 μL of 10 mM NAD(P)H. A substrate free control was conducted using reaction buffer without the addition of acetolactate.
(§2) Purification of KARI: Cell pellets used for purification were resuspended in purification buffer A (20 mM Tris, 20 mM imidazol, 100 mM NaCl, 10 mM MgCl2, pH 7.4). KARI was purified by IMAC (Immobilized metal affinity chromatography) over a 1 ml Histrap High Performance (histrap HP) column pre-charged with Nickel (GE Healthcare) using an Akta FPLC system (GE Healthcare). […]

Assay [3] addresses T3, E. coli KARI Ec_IlvC variant Ec_IlvC^S78D-his6 (S78D), SEQ ID NO: 17 (Escherichia coli, UniProt P05793, S78D).
T3 sequence (P05793 with tags, fused parts or gaps S78D): T1 sequence (P05793 with tags, fused parts or gaps) with S78D
As to the kind of experiment: KARI cuvette assay, purified Ec_IlvC^S78D-his6. It counts as biochemical. How it is done:
as §1, §2

Molecules are shown by their SMILES. Changes are numbered by the printed parent chain.

On to `NC(=O)C1=CN([C@@H]2O[C@H](COP(=O)(O)OP(=O)(O)OC[C@H]3O[C@@H](n4cnc5c(N)ncnc54)[C@H](O)[C@@H]3O)[C@@H](O)[C@H]2O)C=CC1` [NADH, nicotinamide adenine dinucleotide], for which the entries for the “(kcat/KM with NADH)/(kcat/KM of Ec_IlvC^his6 with NADPH)” value in assay [1], in assay [2] and in assay [3] were 1%, 13% and 32%, respectively.
